According to the CheMixHub ionic liquid set:
± gives the uncertainty stated by the source.

Assay: xn = mol fraction of the nth substance listed

CCCC[N+](CCCC)(CCCC)CCCC.N#C[S-] + CCCOCC(C)O
electrical conductivity [S/m], 101 kPa
Conditions	248.15 K	258.15 K	268.15 K	278.15 K	288.15 K	298.15 K	308.15 K	313.15 K
x1 = 0.01119	0.0011 ± 1e-05	0.00185 ± 1e-05	0.00285 ± 1e-05	0.00405 ± 1e-05	0.00541 ± 1e-05	–	0.00829 ± 1e-05	0.00901 ± 1e-05
x1 = 0.01571	0.00157 ± 1e-05	0.00271 ± 1e-05	0.00425 ± 1e-05	0.00618 ± 1e-05	0.00842 ± 1e-05	0.01082 ± 1e-05	0.01352 ± 1e-05	0.01485 ± 1e-05
x1 = 0.01893	0.0019 ± 1e-05	0.00331 ± 1e-05	0.00526 ± 1e-05	0.00773 ± 1e-05	0.01064 ± 1e-05	0.01386 ± 1e-05	0.01748 ± 1e-05	0.01934 ± 1e-05
x1 = 0.02277	0.00227 ± 1e-05	0.00401 ± 1e-05	0.00644 ± 1e-05	0.00956 ± 1e-05	0.01332 ± 1e-05	0.01758 ± 1e-05	0.02234 ± 1e-05	0.02493 ± 1e-05
x1 = 0.02903	0.00284 ± 1e-05	0.00511 ± 1e-05	0.00834 ± 1e-05	0.01257 ± 1e-05	0.01775 ± 1e-05	0.02385 ± 1e-05	0.03061 ± 1e-05	0.03428 ± 1e-05
x1 = 0.03808	0.00356 ± 1e-05	0.00652 ± 1e-05	0.01082 ± 1e-05	0.01658 ± 1e-05	0.02379 ± 1e-05	0.03253 ± 1e-05	0.04237 ± 1e-05	0.04779 ± 1e-05
x1 = 0.04326	0.0039 ± 1e-05	0.00723 ± 1e-05	0.01211 ± 1e-05	0.01864 ± 1e-05	0.02705 ± 1e-05	0.0372 ± 1e-05	0.04875 ± 1e-05	0.0548 ± 1e-05
x1 = 0.06196	0.00476 ± 1e-05	0.00908 ± 1e-05	0.01564 ± 1e-05	0.02482 ± 1e-05	0.03669 ± 1e-05	0.05153 ± 1e-05	0.06887 ± 1e-05	0.07879 ± 1e-05
x1 = 0.07662	0.00504 ± 1e-05	0.00979 ± 1e-05	0.01722 ± 1e-05	0.02776 ± 1e-05	0.04173 ± 1e-05	0.05942 ± 1e-05	0.0805 ± 1e-05	0.09266 ± 1e-05
x1 = 0.09291	0.005 ± 1e-05	0.00994 ± 1e-05	0.01782 ± 1e-05	0.02925 ± 1e-05	0.04479 ± 1e-05	0.06473 ± 1e-05	0.08902 ± 1e-05	0.1031 ± 1e-05
x1 = 0.1099	0.00469 ± 1e-05	0.00956 ± 1e-05	0.01751 ± 1e-05	0.02928 ± 1e-05	0.04564 ± 1e-05	0.06699 ± 1e-05	0.09343 ± 1e-05	0.109 ± 1e-05
x1 = 0.1312	0.00408 ± 1e-05	0.00857 ± 1e-05	0.01611 ± 1e-05	0.02768 ± 1e-05	0.04408 ± 1e-05	0.06606 ± 1e-05	0.09376 ± 1e-05	0.1103 ± 1e-05
x1 = 0.1458	0.0036 ± 1e-05	0.00773 ± 1e-05	0.01481 ± 1e-05	0.02593 ± 1e-05	0.0419 ± 0.0001	0.06371 ± 1e-05	0.09151 ± 1e-05	0.1083 ± 1e-05

CCC[N+](C)(C)C.O=S(=O)([N-]S(=O)(=O)C(F)(F)F)C(F)(F)F + CCC[N+]1(C)CCCC1.O=S(=O)([N-]S(=O)(=O)C(F)(F)F)C(F)(F)F
101.3 kPa
Conditions	viscosity [mPa·s]
283.15 K, x1 = 0.4	135 ± 27
283.15 K, x1 = 0.6	148 ± 30
283.15 K, x1 = 1	179 ± 36
288.15 K, x1 = 0.6	113 ± 23
288.15 K, x1 = 1	133 ± 27
293.15 K, x1 = 0.4	81 ± 16
303.15 K, x1 = 0.8	59 ± 12
308.15 K, x1 = 0.2	42.2 ± 8.5
308.15 K, x1 = 0.6	46.1 ± 9.2
313.15 K, x1 = 0.6	38.2 ± 7.7
318.15 K, x1 = 0.8	33.4 ± 6.7
323.15 K, x1 = 0.8	28.3 ± 5.7
323.15 K, x1 = 1	29.5 ± 5.9
328.15 K, x1 = 0.2	22 ± 4.4
328.15 K, x1 = 0.4	22.2 ± 4.4
328.15 K, x1 = 0.8	24.2 ± 4.8
333.15 K, x1 = 0.2	19.1 ± 3.8
333.15 K, x1 = 0.4	19.3 ± 3.9
333.15 K, x1 = 0.6	20.3 ± 4.1
333.15 K, x1 = 1	21.7 ± 4.3
343.15 K, x1 = 0.4	14.9 ± 3
348.15 K, x1 = 0.4	13.3 ± 2.7
353.15 K, x1 = 0.2	11.8 ± 2.4
353.15 K, x1 = 0.6	12.3 ± 2.5

CCC[N+](C)(C)C.O=S(=O)([N-]S(=O)(=O)C(F)(F)F)C(F)(F)F + CCC[N+]1(C)CCCCC1.O=S(=O)([N-]S(=O)(=O)C(F)(F)F)C(F)(F)F
101.3 kPa
Conditions	viscosity [mPa·s]
283.15 K, x1 = 0.6	248 ± 50
283.15 K, x1 = 0.8	201 ± 41
293.15 K, x1 = 0.6	134 ± 27
293.15 K, x1 = 0.8	113 ± 23
308.15 K, x1 = 0.4	71 ± 14
308.15 K, x1 = 0.6	64 ± 13
313.15 K, x1 = 0.8	45.9 ± 9.2
318.15 K, x1 = 0.4	46.4 ± 9.3
318.15 K, x1 = 0.6	42.3 ± 8.5
343.15 K, x1 = 0.4	20.2 ± 4
343.15 K, x1 = 0.8	17.5 ± 3.5
348.15 K, x1 = 0.8	15.4 ± 3.1
348.15 K, x1 = 1	14.6 ± 2.9

CC(=O)[O-].CC[n+]1ccn(C)c1 + CCO
Conditions	electrical conductivity [S/m]	viscosity [mPa·s]
278.15 K, 101 kPa, x2 = 0.201	–	264 ± 11
278.15 K, 101 kPa, x2 = 0.9	–	3.396 ± 0.074
288.15 K, 101 kPa, x2 = 0	–	284 ± 13
288.15 K, 101 kPa, x2 = 0.1	–	206.6 ± 8.5
288.15 K, 101 kPa, x2 = 0.8	–	5.15 ± 0.11
293.15 K, 101.3 kPa, x2 = 0	0.243 ± 0.001	–
293.15 K, 101.3 kPa, x2 = 0.0733	0.247 ± 0.001	–
293.15 K, 101.3 kPa, x2 = 0.1229	0.269 ± 0.001	–
293.15 K, 101.3 kPa, x2 = 0.2965	0.433 ± 0.001	–
293.15 K, 101.3 kPa, x2 = 0.4286	0.63 ± 0.001	–
293.15 K, 101.3 kPa, x2 = 0.5373	0.991 ± 0.001	–
293.15 K, 101.3 kPa, x2 = 0.7309	1.447 ± 0.001	–
293.15 K, 101.3 kPa, x2 = 0.7625	1.539 ± 0.001	–
293.15 K, 101.3 kPa, x2 = 0.7754	1.615 ± 0.001	–
293.15 K, 101.3 kPa, x2 = 0.8081	1.329 ± 0.001	–
293.15 K, 101.3 kPa, x2 = 0.8897	0.71 ± 0.001	–
293.15 K, 101.3 kPa, x2 = 0.9163	0.505 ± 0.001	–
293.15 K, 101.3 kPa, x2 = 0.9299	0.404 ± 0.001	–
293.15 K, 101.3 kPa, x2 = 0.9383	0.335 ± 0.001	–
293.15 K, 101.3 kPa, x2 = 0.9494	0.252 ± 0.001	–
298.15 K, 101 kPa, x2 = 0.4002	–	31.8 ± 0.86
298.15 K, 101 kPa, x2 = 0.5001	–	20.04 ± 0.51
298.15 K, 101 kPa, x2 = 0.8666	–	2.67 ± 0.13
308.15 K, 101 kPa, x2 = 0.2999	–	32.06 ± 0.91
308.15 K, 101 kPa, x2 = 0.6	–	9.27 ± 0.22
308.15 K, 101 kPa, x2 = 0.8	–	3.398 ± 0.074
313.15 K, 101 kPa, x2 = 0.1059	–	43.5 ± 1.9
313.15 K, 101 kPa, x2 = 0.2471	–	28.5 ± 1.3
313.15 K, 101 kPa, x2 = 0.5572	–	9.24 ± 0.42
313.15 K, 101 kPa, x2 = 0.7494	–	3.89 ± 0.18
318.15 K, 101 kPa, x2 = 0.1	–	39.7 ± 1.3
318.15 K, 101 kPa, x2 = 0.201	–	29.99 ± 0.89
318.15 K, 101 kPa, x2 = 0.2999	–	22.19 ± 0.62
318.15 K, 101 kPa, x2 = 0.4002	–	15.76 ± 0.42
318.15 K, 101 kPa, x2 = 0.6	–	7.27 ± 0.17
318.15 K, 101 kPa, x2 = 0.9	–	1.591 ± 0.034
328.15 K, 101 kPa, x2 = 0	–	30.3 ± 1.3
328.15 K, 101 kPa, x2 = 0.7	–	3.833 ± 0.086
338.15 K, 101 kPa, x2 = 0	–	21.85 ± 0.73
338.15 K, 101 kPa, x2 = 0.8	–	2.049 ± 0.044
343.15 K, 101 kPa, x2 = 0.1059	–	14.96 ± 0.65
343.15 K, 101 kPa, x2 = 0.3504	–	8.69 ± 0.39
343.15 K, 101 kPa, x2 = 0.4165	–	7.31 ± 0.33
